Laboratory results: US20110033938A1, “SYSTEM FOR INDUCIBLE GENE EXPRESSION IN CHLAMYDOMONAS” (priority 2008, published 2011)
Like-named read-outs stand apart in the source and are kept apart here.

Key:
[1] = tested on: Cyc6 promoter; type: cell-based, Chlamydomonas reinhardtii; conditions: for Luc activity induction relative to PsaD: 75 μM Ni2+
Description: (§1) In order to measure quantitatively the transcription of a gene sequence placed under the control of the Cyc6 promoter, we cloned downstream of this promoter the reporter gene cRLuc (Fuhrmann et al., 2004). This gene was also cloned downstream of the strong constitutive PsaD promoter (Fischer e Rochaix, 2001) obtaining the cassettes Cyc6:cRLuc and PsaD:cRLuc (FIG. 1A). Chlamydomonas cells were transformed with these cassettes according to Kindle (1990) and the transformed cells were inoculated in TAP growth medium (Harris, 1989) at a cell density of 10^6 cells/ml. 30 hours later, Ni2+ was added at a final concentration of 25, 50 and 75 μM and Luc activity was measured in the cellular lysates at different times after induction using the Luciferase Assay System (Promega, cat. E2820).
(§2) Ni2+ was added to cells transformed with the construct Cyc6:cRLuc (indicated as “transformed cells” from now on) and grown in TAP, TAP/ENEA1 and TAP/ENEA2 growth media. […] An ideal inducible gene system should be promptly reversible after the addition of an antagonist of the inducer, effective at micromolar concentrations.
(§3) Since the Cyc6 promoter is switched off by Cu2+, the use of chelators specific for that ion can be an alternative method for the reversible induction of this promoter. As an example, FIGS. 4A and 4B show, respectively, the Luc activity and the growth curves of cells transformed with the construct Cyc6:cRLuc grown in TAP/ENEA2 growth medium and induced with the chelators listed in Table 3. […] In the present invention, we propone an alternative method to the Ni2+/EDTA system: activation by Cu chelators, followed by reversion by Cu2+ addition. […] In these experiments, the Cyc6 promoter was induced by 2 μM TETA and repressed by 1 μM Cu2+ (FIG. 4D) and by 5 μM TETA and by 2 μM Cu2+ (FIG. 4E). At 88 hours from TETA addition, the culture in stationary phase was diluted 1:20 and after 30 hours (0 hours of the second cycle) TETA was added at concentrations of 2 (FIG. 4D) e 5 μM (FIG. 4E). At 16 hours Cu2+ was added at the concentration of 1 (FIG. 4D) and 2 μM (FIG. 4E). […] In the system described here, activation and repression of the promoter are obtained respectively by addition of an inducer and its antagonist. In none of the chemically regulated gene expression systems described to date, such an activation followed by repression has been described.
A, C, E: Luc activity of Chlamydomonas cells transformed with the Cyc6:cRLuc construct in TAP, TAP/ENEA1 and TAP/ENEA2 growth media in the presence of 25 μM (A), 50 μM (C), 75 μM (E) Ni2+. B, D, F: Growth curves of the transformed cells grown in TAP, TAP/ENEA1 and TAP/ENEA2 growth media in the presence of different Ni2+ concentrations, 25 μM (B), 50 μM (D), 75 μM (F) Ni2+. For the composition of the different media, see Table 2.
(§4) A: Luc activity of cells transformed with Cyc6:cRLuc construct induced by the different chelators listed in Table 3 in TAP/ENEA2 growth medium. B: Growth curves in TAP/ENEA2 growth medium in the presence of different Cu-chelators.

[2] = tested on: Cyc6 promoter; assay: Reversibility of Cyc6 promoter induction (Luc activity) after addition of an antagonist (EDTA or Cu2+); type: cell-based, Chlamydomonas reinhardtii
Description: as §3, §4

[3] = tested on: Chlamydomonas growth; conditions: for toxicity effects on Chlamydomonas growth: TAP medium; for effect on Chlamydomonas growth rate: all three growth media
Description: as §1, §2, §3
A: Schematic maps of the PsaD:cRLuc and Cyc6:cRLuc constructs B: Schematic maps of the Cyc6:Rb-int-1, Cyc6:Rb-int-2, Cyc6:Rb:int-3 constructs C: Growth curves in TAP medium after addition of different Ni concentrations D: Luc activity driven by PsaD and Cyc6 in TAP medium after addition of different Ni concentrations
A, C, E: Luc activity of Chlamydomonas cells transformed with the Cyc6:cRLuc construct in TAP, TAP/ENEA1 and TAP/ENEA2 growth media in the presence of 25 μM (A), 50 μM (C), 75 μM (E) Ni2+.

## NCCNCCNCCN [TETA, triethylentetramine]
[1]
  Cyc6 promoter activation in TAP/ENEA2 versus TAP: only in TAP/ENEA2 growth medium
  activation of the Cyc6 promoter (Luc activity): able to activate the Cyc6 promoter
  time course of Luc activity after chelator addition: increases steadily until 48 hours
[2]
  induction in a second growth cycle: a second induction is obtained

## Cn1ccnc1CNC1CC(NCc2nccn2C)CC(NCc2nccn2C)C1 (stereo not drawn) [IM, 1,3,5-cis,cis,-triaminocyclohexane-N,N′,N″-tris-(2-methyl-(N-methylimidazole))]
[1]; chelator 10 μM, TAP/ENEA2
  activation of the Cyc6 promoter (Luc activity): able to activate the Cyc6 promoter

## O=C(O)CN(CCN(CC(=O)O)CC(=O)O)CC(=O)O [EDTA]
[2]; EDTA 25, 50 and 150 μM added 16 hours after 25 or 50 μM Ni2+, TAP/ENEA2 and TAP
  reversion of Cyc6 promoter activity (Luc) by EDTA: only partially reverted

## [Cu+2] [Cu2+]
[2]; 2 μM Cu2+ added 16 hours after chelator addition, TAP/ENEA2
  effect on Luc activity after TETA induction: represses Luc activity
[2]; micromolar Cu2+, TAP/ENEA2, FIG. 4C
  reversion of TETA induction by Cu2+: can be reverted

## c1cnc2c(c1)ccc1cccnc12 [1.10 phenanthroline, 1,10-phenanthroline]
[3]; chelator 10 μM, TAP/ENEA2
  toxicity on Chlamydomonas growth: toxic

## [Ni+2] [Ni2+]
[1]; 25 μM Ni2+
  Cyc6 promoter activity in TAP, TAP/ENEA1 and TAP/ENEA2: active only in TAP/ENEA2 growth medium
[1]; 25 μM Ni2+, TAP medium
  activation of the Cyc6 promoter: not sufficient to activate the Cyc6 promoter
[1]; 25 μM Ni2+, TAP/ENEA2
  Cyc6 promoter activity relative to PsaD promoter: same level of activity as the strong PsaD promoter
[1]; 50 μM Ni2+
  increase of Cyc6 promoter activity in TAP/ENEA2 with respect to TAP medium: 25 times
[1]; 50 μM Ni2+, TAP
  Cyc6 promoter activity relative to PsaD: 1/10
[1]; 50 μM Ni2+, TAP/ENEA1
  Cyc6 promoter activity relative to PsaD: ½
[1]; 50 μM Ni2+, TAP/ENEA2
  Cyc6 promoter activity relative to PsaD: 2.5 fold more than PsaD
[1]; TAP/ENEA1
  Luc activity induction relative to PsaD: about two-fold
[1]; TAP/ENEA2
  Luc activity induction relative to PsaD: about two-fold
[1]; 25, 50 and 75 μM Ni2+, TAP medium
  Luc activity after induction compared to PsaD promoter: low compared to the Luc activity driven by the PsaD promoter
[3]; 25 μM Ni2+
  toxicity effects on Chlamydomonas growth: does not have toxic effects
[3]; 25 μM Ni2+, all three growth media (TAP, TAP/ENEA1, TAP/ENEA2)
  toxic effects on growth: only minor toxic effects
[3]; 50 μM Ni2+
  toxicity effects on Chlamydomonas growth: toxicity effects
  effect on Chlamydomonas growth rate: evident slowing down of Chlamydomonas growth rate
[3]; 75 μM Ni2+
  toxicity effects on Chlamydomonas growth: toxicity effects
  effect on Chlamydomonas growth rate: evident slowing down of Chlamydomonas growth rate

## Cc1cc(-c2ccc(S(=O)(=O)O)cc2)c2ccc3c(-c4ccc(S(=O)(=O)O)cc4)cc(C)nc3c2n1 [BCS, bathocuproinedisulfonic acid]
[1]; chelator 10 μM, TAP/ENEA2
  activation of the Cyc6 promoter (Luc activity): able to activate the Cyc6 promoter
